According to ChEMBL document CHEMBL1127920, “Synthesis and biological activity of 14-hydroxydocetaxel” (Bioorg Med Chem Lett, 1994):

How the values were obtained:
Format in all cases: functional, cell-based
[1] = test system: A549; assay: Cytotoxicity was evaluated in vitro against A549 (non-small cell lung carcinoma) human tumor cell lines
[2] = test system: A121; assay: Cytotoxicity was evaluated in vitro against A121 (ovarian carcinoma) human tumor cell lines
[3] = test system: HT-29; assay: Cytotoxicity was evaluated in vitro against HT-29 (colon carcinoma) human tumor cell lines
[4] = test system: MCF7; assay: Cytotoxicity was evaluated in vitro against MCF-7 (mammary carcinoma) human tumor cell lines

| SMILES | IC50 [1] | IC50 [2] | IC50 [3] | IC50 [4] |
| --- | --- | --- | --- | --- |
| CC(=O)O[C@@]12CO[C@@H]1C[C@H](O)[C@@]1(C)C(=O)[C@H](O)C3=C(C)[C@@H](OC(=O)[C@H](O)[C@@H](NC(=O)OC(C)(C)C)c4ccccc4)[C@@H]4OC(C)(C)O[C@]4([C@@H](OC(=O)c4ccccc4)C12)C3(C)C (some centres not stated) | 18 nM | 46 nM | 21 nM | 34 nM |
| CC(=O)O[C@@]12CO[C@@H]1C[C@H](O)[C@@]1(C)C(=O)[C@H](O)C3=C(C)[C@@H](OC(=O)[C@H](O)[C@@H](NC(=O)OC(C)(C)C)c4ccccc4)[C@H](O)[C@@](O)([C@@H](OC(=O)c4ccccc4)C12)C3(C)C (some centres not stated) | 0.8 nM | 3.3 nM | 2.1 nM | 1.9 nM |
| CC(=O)O[C@@]12CO[C@@H]1C[C@H](O)[C@@]1(C)C(=O)[C@H](O)C3=C(C)[C@@H](OC(=O)[C@H](O)[C@@H](NC(=O)OC(C)(C)C)c4ccccc4)C[C@@](O)([C@@H](OC(=O)c4ccccc4)[C@H]21)C3(C)C [DOCETAXEL] | 1 nM | 1.2 nM | 1.2 nM | 1 nM |
